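Protocol summary: plate cells (96-well), add compound at 5 concentrations, incubate 48 h, interpolate endpoints linearly. GI50: concentration for 50% inhibition of growth. TGI is the concentration that stops growth completely.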
What was measured:
Test in all cases: NCI tumour cell line growth inhibition, 48 h
SW-620 colon = tested on: SW-620 colon
PC-3 prostate = tested on: PC-3 prostate
CAKI-1 renal = tested on: CAKI-1 renal
NCI-H226 lung = tested on: NCI-H226 lung
HCT-15 colon = tested on: HCT-15 colon
HOP-62 NSCLC = tested on: HOP-62 NSCLC
M14 melanoma = tested on: M14 melanoma
A498 renal = tested on: A498 renal
ACHN renal = tested on: ACHN renal
SN12C renal = tested on: SN12C renal
SK-MEL-2 melanoma = tested on: SK-MEL-2 melanoma
COLO 205 colon = tested on: COLO 205 colon
NCI-H23 lung = tested on: NCI-H23 lung
A549 NSCLC = tested on: A549 NSCLC
HCC-2998 colon = tested on: HCC-2998 colon
BT-549 breast = tested on: BT-549 breast
UO-31 renal = tested on: UO-31 renal
LOX IMVI melanoma = tested on: LOX IMVI melanoma
U251 CNS = tested on: U251 CNS
MDA-MB-435 = tested on: MDA-MB-435
HOP-92 NSCLC = tested on: HOP-92 NSCLC
HS 578T breast = tested on: HS 578T breast
OVCAR-5 ovarian = tested on: OVCAR-5 ovarian
SNB-19 CNS = tested on: SNB-19 CNS
MDA-MB-231 breast = tested on: MDA-MB-231 breast
HT29 colon = tested on: HT29 colon
HCT-116 colon = tested on: HCT-116 colon
SK-OV-3 ovarian = tested on: SK-OV-3 ovarian
SF-268 CNS = tested on: SF-268 CNS
NCI-H522 lung = tested on: NCI-H522 lung
UACC-62 melanoma = tested on: UACC-62 melanoma
OVCAR-4 ovarian = tested on: OVCAR-4 ovarian
OVCAR-3 ovarian = tested on: OVCAR-3 ovarian
SNB-75 CNS = tested on: SNB-75 CNS
MCF7 breast = tested on: MCF7 breast
RXF 393 renal = tested on: RXF 393 renal
NCI-H460 lung = tested on: NCI-H460 lung
T-47D breast = tested on: T-47D breast
EKVX NSCLC = tested on: EKVX NSCLC
UACC-257 melanoma = tested on: UACC-257 melanoma
IGROV1 ovarian = tested on: IGROV1 ovarian
DU-145 prostate = tested on: DU-145 prostate
CCRF-CEM leukemia = tested on: CCRF-CEM leukemia
HL-60(TB) leukemia = tested on: HL-60(TB) leukemia
SF-295 CNS = tested on: SF-295 CNS
MALME-3M melanoma = tested on: MALME-3M melanoma
SK-MEL-5 melanoma = tested on: SK-MEL-5 melanoma
SK-MEL-28 melanoma = tested on: SK-MEL-28 melanoma
NCI/ADR-RES ovarian = tested on: NCI/ADR-RES ovarian
KM12 colon = tested on: KM12 colon
SR leukemia = tested on: SR leukemia
RPMI-8226 leukemia = tested on: RPMI-8226 leukemia
K-562 leukemia = tested on: K-562 leukemia
OVCAR-8 ovarian = tested on: OVCAR-8 ovarian
TK-10 renal = tested on: TK-10 renal
786-0 renal = tested on: 786-0 renal
MOLT-4 leukemia = tested on: MOLT-4 leukemia
SF-539 CNS = tested on: SF-539 CNS

In the case of `CCn1c(-c2nonc2N)nc2c(C#CC(C)(C)O)nc(OC[C@H](N)c3ccccc3)cc21`, the GI50 (SW-620 colon) is reported as 4.47 µM, the TGI (SW-620 colon) is reported as 8.67 µM and the GI50 (PC-3 prostate) is reported as 3.92 µM. The TGI (PC-3 prostate) was 8.87 µM, the GI50 (CAKI-1 renal) was 3.94 µM and the TGI (CAKI-1 renal) was 8.93 µM. It also gave a GI50 (NCI-H226 lung) of 11.9 µM, a TGI (NCI-H226 lung) of 15.8 µM and a GI50 (HCT-15 colon) of 2530 nM. For the same molecule, the TGI (HCT-15 colon) was 6.73 µM, the GI50 (HOP-62 NSCLC) was 5.54 µM and the TGI (HOP-62 NSCLC) was 9.99 µM. The GI50 (M14 melanoma) was 3.94 µM, the TGI (M14 melanoma) was 7.47 µM and the GI50 (A498 renal) was 157 nM. It also gave a TGI (A498 renal) of 7.63 µM, a GI50 (ACHN renal) of 2600 nM and a TGI (ACHN renal) of 5.78 µM. For the same molecule, the GI50 (SN12C renal) was 3.67 µM, the TGI (SN12C renal) was 7.38 µM and the GI50 (SK-MEL-2 melanoma) was 4.12 µM. The TGI (SK-MEL-2 melanoma) was 8.24 µM, the GI50 (COLO 205 colon) was 3.52 µM and the TGI (COLO 205 colon) was 7 µM. It also gave a GI50 (NCI-H23 lung) of 5.21 µM, a TGI (NCI-H23 lung) of 12.4 µM and a GI50 (A549 NSCLC) of 3.69 µM. For the same molecule, the TGI (A549 NSCLC) was 7.45 µM, the GI50 (HCC-2998 colon) was 3.74 µM and the TGI (HCC-2998 colon) was 7.59 µM. The GI50 (BT-549 breast) was 3.39 µM, the TGI (BT-549 breast) was 6.74 µM and the GI50 (UO-31 renal) was 2910 nM. For the same molecule, the TGI (UO-31 renal) was 6.83 µM, the GI50 (LOX IMVI melanoma) was 3.84 µM and the TGI (LOX IMVI melanoma) was 7.89 µM. For the same molecule, the GI50 (U251 CNS) was 3.21 µM, the TGI (U251 CNS) was 6.67 µM and the GI50 (MDA-MB-435) was 4.79 µM. The TGI (MDA-MB-435) was 9.42 µM, the GI50 (HOP-92 NSCLC) was 2370 nM and the TGI (HOP-92 NSCLC) was 7.38 µM. It also gave a GI50 (HS 578T breast) of 1800 nM, a TGI (HS 578T breast) of 7.28 µM and a GI50 (OVCAR-5 ovarian) of 5.69 µM. The TGI (OVCAR-5 ovarian) was 9.99 µM, the GI50 (SNB-19 CNS) was 7.3 µM and the TGI (SNB-19 CNS) was 20.5 µM. The GI50 (MDA-MB-231 breast) was 4.35 µM, the TGI (MDA-MB-231 breast) was 8.83 µM and the GI50 (HT29 colon) was 4.11 µM. For the same molecule, the TGI (HT29 colon) was 8.81 µM, the GI50 (HCT-116 colon) was 3.55 µM and the TGI (HCT-116 colon) was 6.99 µM. For the same molecule, the GI50 (SK-OV-3 ovarian) was 1560 nM, the TGI (SK-OV-3 ovarian) was 5.71 µM and the GI50 (SF-268 CNS) was 4.94 µM. It also gave a TGI (SF-268 CNS) of 11.2 µM, a GI50 (NCI-H522 lung) of 4.47 µM and a TGI (NCI-H522 lung) of 8.63 µM. The GI50 (UACC-62 melanoma) was 4.24 µM, the TGI (UACC-62 melanoma) was 8.08 µM and the GI50 (OVCAR-4 ovarian) was 5.01 µM. The TGI (OVCAR-4 ovarian) was 9.61 µM, the GI50 (OVCAR-3 ovarian) was 3.56 µM and the TGI (OVCAR-3 ovarian) was 6.84 µM. For the same molecule, the GI50 (SNB-75 CNS) was 926 nM, the TGI (SNB-75 CNS) was 4.65 µM and the GI50 (MCF7 breast) was 2920 nM. It also gave a TGI (MCF7 breast) of 6.16 µM, a GI50 (RXF 393 renal) of 1280 nM and a TGI (RXF 393 renal) of 4.73 µM. For the same molecule, the GI50 (NCI-H460 lung) was 2760 nM, the TGI (NCI-H460 lung) was 6.31 µM and the GI50 (T-47D breast) was 2880 nM. The TGI (T-47D breast) was 7.53 µM, the GI50 (EKVX NSCLC) was 10.8 µM and the TGI (EKVX NSCLC) was 18.1 µM. It also gave a GI50 (UACC-257 melanoma) of 5.18 µM, a TGI (UACC-257 melanoma) of 9.43 µM and a GI50 (IGROV1 ovarian) of 2630 nM. The TGI (IGROV1 ovarian) was 7.23 µM, the GI50 (DU-145 prostate) was 3.26 µM and the TGI (DU-145 prostate) was 6.47 µM. The GI50 (CCRF-CEM leukemia) was 3.65 µM, the TGI (CCRF-CEM leukemia) was 24.9 µM and the GI50 (HL-60(TB) leukemia) was 5.23 µM. The TGI (HL-60(TB) leukemia) was 10.1 µM, the GI50 (SF-295 CNS) was 2950 nM and the TGI (SF-295 CNS) was 7.22 µM. For the same molecule, the GI50 (MALME-3M melanoma) was 4.69 µM, the TGI (MALME-3M melanoma) was 9.35 µM and the GI50 (SK-MEL-5 melanoma) was 4.21 µM. The TGI (SK-MEL-5 melanoma) was 7.64 µM, the GI50 (SK-MEL-28 melanoma) was 4.75 µM and the TGI (SK-MEL-28 melanoma) was 8.56 µM. The GI50 (NCI/ADR-RES ovarian) was 5.31 µM, the TGI (NCI/ADR-RES ovarian) was 13.9 µM and the GI50 (KM12 colon) was 2990 nM. The TGI (KM12 colon) was 6.39 µM, the GI50 (SR leukemia) was 6.24 µM and the TGI (SR leukemia) was 16.3 µM. The GI50 (RPMI-8226 leukemia) was 6.04 µM, the TGI (RPMI-8226 leukemia) was 14 µM and the GI50 (K-562 leukemia) was 5.09 µM. For the same molecule, the TGI (K-562 leukemia) was 14 µM, the GI50 (OVCAR-8 ovarian) was 4.21 µM and the TGI (OVCAR-8 ovarian) was 9.44 µM. It also gave a GI50 (TK-10 renal) of 2690 nM, a TGI (TK-10 renal) of 6.37 µM and a GI50 (786-0 renal) of 1910 nM. It also gave a TGI (786-0 renal) of 5.43 µM, a GI50 (MOLT-4 leukemia) of 3.09 µM and a TGI (MOLT-4 leukemia) of 14.7 µM. The GI50 (SF-539 CNS) was 2350 nM and the TGI (SF-539 CNS) was 6.07 µM.
